Assay results as given in patent US20170290844A1, “Methods of Treatment” (GlaxoSmithKline Intellectual Property Development Limited, priority 2014, published 2017).

Columns and labels:
[1] = test system: COPD bronchial epithelial cells infected with HRV16; assay: Genome-wide transcriptional analysis by microarray of COPD BECs infected with HRV16; format: cell-based, human; details: 72 h HRV16 infection
Text: (§1) Air-liquid interface (ALI) cultured human bronchial epithelial cells (BECs) from chronic obstructive pulmonary disease (COPD) donors were either bought fully differentiated (Epithelix Sarl, Cat. No. EP10MD) or cultured in-house using the Pneumocult method (StemCell Technologies, Cat. No. 05001), in a 24-well format. Primary cells for in-house ALI cultures were obtained from Epithelix Sarl, Cat. No. EP18AB.
(§2) Prior to infection, ALI cells were washed twice in warm PBS (with Ca2^+/Mg2^+). Subsequently, human rhinovirus 16 was applied at multiplicity of infection (MOI) of 1 or 5 in a total volume of 50 μl culture medium. The virus was allowed to attach for 1h at room temperature with gentle agitation. Consequently, the virus was washed off with warm PBS (with Ca2^+/Mg2^+) and cells were further cultured at 37° C. for the indicated amount of time either with or without the addition of a rsecretase inhibitor CompA (S)-2-[2-(3,5-difluorophenyl)-acetylamino]-N—((S)-1-methyl-2-oxo-5-phenyl-2,3-dihydro-1H-benzo[e][1,4]diazepin-3-yl)-propionamide, (Calbiochem Cat. No. 565790).
(§3) Ribonucleic acid (RNA) from ALI cultured COPD BECs was prepared by lysing the cells in RLT buffer supplied with Promega Total RNA Isolation System (Promega, Cat. No. Z3505). RNA was then extracted by using the manufacturer's protocol with automation. Murine total lung RNA was isolated by first homogenisation of the lung in 1 ml TRIZOL™ reagent, then subsequent phase separation with 1-bromo-3-chloropropane (BCP) (MRC, Cat. No. BP151). The aqueous phase was then mixed with 70% ethanol and final RNA extraction was achieved using the Promega Total RNA Isolation System with automation. […] Amplification of specific targets was performed by quantitative real-time polymerase chain reaction (qRT-PCR) using the TaqMan® gene expression system (Applied Biosystems Cat. No. 4369510) and ready to use TaqMan® primer/probes (see Table 1). […]

healthy neutrophil = assay: Neutrophil chemotaxis in response to supernatants from HRV16 infected COPD BECs; format: cell-based; details: supernatants of COPD BECs 72 h post HRV16 infection, versus untreated infected samples
[2] = test system: COPD BECs infected with HRV16; assay: Mucociliary responses of BECs infected with HRV16 (real-time PCR, AB/PAS staining, β-tubulin IV immunofluorescence); format: cell-based, human
Text: as §1, §2
Ribonucleic acid (RNA) from ALI cultured COPD BECs was prepared by lysing the cells in RLT buffer supplied with Promega Total RNA Isolation System (Promega, Cat. No. Z3505). RNA was then extracted by using the manufacturer's protocol with automation. Murine total lung RNA was isolated by first homogenisation of the lung in 1 ml TRIZOL™ reagent, then subsequent phase separation with 1-bromo-3-chloropropane (BCP) (MRC, Cat. No. BP151). The aqueous phase was then mixed with 70% ethanol and final RNA extraction was achieved using the Promega Total RNA Isolation System with automation. Complementary deoxyribonucleic acid (cDNA) was synthesised by reverse transcription using MultiScribe™ Reverse Transcriptase and random primers according to the manufacturer's protocol (Applied Biosystems, Cat. No. 4368814). Amplification of specific targets was performed by quantitative real-time polymerase chain reaction (qRT-PCR) using the TaqMan® gene expression system (Applied Biosystems Cat. No. 4369510) and ready to use TaqMan® primer/probes (see Table 1). Global gene expression analysis was performed by microarray using the Human Genome U133 Plus 2.0 genechip and was done either by Epistem Ltd. (Manchester, UK) or Expression Analysis, Inc. (Durham, US). Data analysis was performed using Array Studio software (OmicSoft Corporation, Cary, US) with GC-RMA normalisation algorithm. Probes with intensities less than the geometric mean of 64 were discarded. […]
ALI cultured BECs were fixed in 4% paraformaldehyde (PFA) overnight. Mucus load was assessed by histological sections with Alcian Blue/Periodic Acid Schiff (AB/PAS) stainings and were performed by the GSK PTS histological core facility. […]

T-cell = T-cell chemotaxis in response to supernatants from HRV16 infected COPD BECs; format: cell-based; details: supernatants of COPD BECs 72 h post HRV16 infection
[3] = test system: ALI cultured COPD BECs infected with HRV16; assay: Protein secretion of immune mediators in supernatants of ALI cultured COPD BECs (MSD/ELISA); format: cell-based, human; details: 72 h post HRV16 infection
Text: as §1
(§4) Prior to infection, ALI cells were washed twice in warm PBS (with Ca2^+/Mg2^+). Subsequently, human rhinovirus 16 was applied at multiplicity of infection (MOI) of 1 or 5 in a total volume of 50 μl culture medium. The virus was allowed to attach for 1h at room temperature with gentle agitation. […]
Detection of secreted proteins was done on the Meso Scale Discovery (MSD®) platform according to the manufacturer's protocol. Chemokines CXCL6 and CCL5 were detected by enzyme linked immunosorbent assay (ELISA) kits both bought from R&D systems, Cat. Nos. DY333 and DRN00B, respectively. […] Analytical flow cytometry was performed using the FACSCanto II (Beckton Dickinson) and analysed using FlowJo software (Tree Star, Inc. Ashland, US).

[4] = test system: COPD BECs infected with HRV16; assay: Gene expression by real-time PCR in ALI cultures of COPD BECs infected with HRV16; format: cell-based, human; details: 24 h post HRV16 infection
Text: as §1, §4
Ribonucleic acid (RNA) from ALI cultured COPD BECs was prepared by lysing the cells in RLT buffer supplied with Promega Total RNA Isolation System (Promega, Cat. No. Z3505). […] Amplification of specific targets was performed by quantitative real-time polymerase chain reaction (qRT-PCR) using the TaqMan® gene expression system (Applied Biosystems Cat. No. 4369510) and ready to use TaqMan® primer/probes (see Table 1). […]

[5] = test system: female Balb/c mice following HRV1B inoculation; assay: Inflammation and mucus gene expression in lungs of mice following HRV1B inoculation; format: in vivo; details: 8 h post infection, 0.5 mg/kg
Method: For in-vivo experiments, 8 weeks old female BALB/c mice were intra-nasally infected with 1×10^8 plaque forming units (PFUs) of human rhinovirus serotype 1b (HRV1b) virus in a total of 50 μl and either treated or not with a γ-secretase inhibitor CompB N2-[(2S)-2-(3,5-difluorophenyl)-2-hydroxyethanoyl]-N1-[(7S)-5-methyl-6-oxo-6,7-dihydro-5H-dibenzo[b,d]azepin-7-yl]-L-alaninamide at a concentration of 0.5 mg/kg. To assess inflammation to the lung, broncho-alveolar lavage fluid (BALF) was collected and cellular infiltrates analysed on the Sysmex cell analysis system (Milton Keynes, UK). Subsequently, whole lung was placed into 1 ml of TRIZOL™ reagent for downstream gene expression analysis.
as §3, with “BP151).” for “BP151). The aqueous phase was then mixed with 70% ethanol and final RNA extraction was achieved using the Promega Total RNA Isolation System with automation.”

[6] = healthy and COPD human BECs at ALI

C[C@H](NC(=O)Cc1cc(F)cc(F)c1)C(=O)N[C@H]1N=C(c2ccccc2)c2ccccc2N(C)C1=O [CompA, (S)-2-[2-(3,5-difluorophenyl)-acetylamino]-N—((S)-1-methyl-2-oxo-5-phenyl-2,3-dihydro-1H-benzo[e][1,4]diazepin-3-yl)-propionamide]
cilia associated genes (expression) [1]: restores cilia associated genes | interferon response [1]: left unaltered | upregulation of goblet cell associated genes [1]: inhibits upregulation of goblet cell associated genes | neutrophil chemotaxis (healthy neutrophil): reduced | ciliation ([2]; COPD BECs, 72 h, ciliated cell genes and β-tubulin IV staining): restores ciliation | mucus production ([2]; COPD BECs, 72 h, goblet cell genes and AB/PAS staining): inhibits mucus production | loss of ciliation [2, 6]: prevents the loss of ciliation | mucus secretion [2, 6]: reduces mucus secretion | T-cell chemotaxis (T-cell): unaltered | secretion of T-cell associated chemokines [3]: less affected | secretion of neutrophilic chemokines [3]: reduced secretion | gene expression of T-cell associated chemokines [4]: less affected | gene expression of neutrophilic chemokines [4]: transcriptional inhibition

C[C@H](NC(=O)[C@@H](O)c1cc(F)cc(F)c1)C(=O)N[C@@H]1C(=O)N(C)c2ccccc2-c2ccccc21 [CompB, N2-[(2S)-2-(3,5-difluorophenyl)-2-hydroxyethanoyl]-N1-[(7S)-5-methyl-6-oxo-6,7-dihydro-5H-dibenzo[b,d]azepin-7-yl]-L-alaninamide]
mucin gene expression (Muc5ac) in lungs [5]: reduced | recruitment of neutrophils into the lungs (BAL) [5]: reduced
